The source of these data is patent publication US3958000A, “Fungicidal 2-arylthio-, 2-alkylthio- and 2-haloalkylthio-1,2,4-oxadiazolidine-3,5-diones” (Chevron Research Company, priority 1975, dated 1976).

Common to all, as to format: cell-based
In one assay the test system is Alternaria solani. In words: Fungal spore control (spore slide-germination) against Alternaria solani. As to conditions: Conc. 4 ppm, overnight in moist chamber, read-out: % Control (percent inhibition of germination of fungus spores).
For a further assay, the system named is Botrytis cinerea. As to the kind of experiment: Fungal spore control (spore slide-germination) against Botrytis cinerea. As to conditions: Conc. 10 ppm, overnight in moist chamber, read-out: % Control (percent inhibition of germination of fungus spores).
For the next assay, the system named is Monolinia fructicola. As to the kind of experiment: Fungal spore control (spore slide-germination) against Monolinia fructicola. Particulars: Conc. 10 ppm, overnight in moist chamber, read-out: % Control (percent inhibition of germination of fungus spores).

By inhibition is commonly meant the relative decrease from the control value, in per cent. As to `O=c1on(SC(Cl)(Cl)Cl)c(=O)n1C1CCCCC1` [Compound 1, 2-trichloromethylthio-4-cyclohexyl-1,2,4-oxadiazolidine-3,5-dione], the inhibition at 4 ppm with Alternaria solani was determined as 78%. In addition, the inhibition at 10 ppm in the assay on Botrytis cinerea and in the assay on Monolinia fructicola was 100% in each case.

On to `CC(C)n1c(=O)on(SC(Cl)(Cl)Cl)c1=O` [Compound 3], for which the inhibition at 4 ppm in the assay on Alternaria solani was 99%. Moreover, the inhibition at 10 ppm in the assay with Botrytis cinerea and in the assay on Monolinia fructicola was 100% in each case.
